Test results reported in patent US20130237444A1, “GBM MOLECULAR CONTEXTS ASSOCIATED WITH PATIENT SURVIVAL” (Translational Genomics Research Institute, priority 2012, published 2013).

Experiments:
[1] = tested on: Classical-mapped xenograft models; assay: Survival of drug-treated GBM mouse xenografts vs control, Classical-mapped; details: for frequency of xenograft models with survival difference NS (statistically Not Significant) / frequency of xenograft models with significantly longer survival than control (treatment-sensitive) / frequency of xenograft models with significantly shorter survival than control (treatment-resistant): Classical subtype, total 2 xenografts; for frequency of xenograft models with survival difference NS (statistically Not Significant): Cox regression; for frequency of xenograft models with significantly longer survival than control (treatment-sensitive) / frequency of xenograft models with significantly shorter survival than control (treatment-resistant): Cox regression p-value threshold 0.05
Experimental: (§1) Forty GBM mouse xenografts were used. […] These xenografts were also mapped to the four molecular subtypes: proneural, neural, classical, and mesenchymal.
(§2) Characterizing drug responsiveness for GBM subtypes using the mapped xenografts: Out of 40 xenograft models, 21 models were treated with 4 different treatments and their survival rates were compared against control groups.

[2] = tested on: Neural-mapped xenograft models; assay: Survival of drug-treated GBM mouse xenografts vs control, Neural-mapped; assay type: in vivo; details: Neural subtype, total 3 xenografts; for frequency of xenograft models with survival difference NS (statistically Not Significant): Cox regression; for frequency of xenograft models with significantly longer survival than control (treatment-sensitive) / frequency of xenograft models with significantly shorter survival than control (treatment-resistant): Cox regression p-value threshold 0.05
Experimental: as §1, §2

[3] = tested on: Proneural-mapped xenografts; assay: Survival of drug-treated GBM mouse xenografts vs control, Proneural-mapped; assay type: in vivo; details: Proneural subtype, total 2 xenografts; for frequency of xenograft models with survival difference NS (statistically Not Significant): Cox regression; for frequency of xenograft models with significantly longer survival than control (treatment-sensitive) / frequency of xenograft models with significantly shorter survival than control (treatment-resistant): Cox regression p-value threshold 0.05
Experimental: as §1, §2

[4] = tested on: Mesenchymal-mapped xenograft models; assay: Survival of drug-treated GBM mouse xenografts vs control, Mesenchymal-mapped; details: for frequency of xenograft models with survival difference NS (statistically Not Significant) / frequency of xenograft models with significantly longer survival than control (treatment-sensitive) / frequency of xenograft models with significantly shorter survival than control (treatment-resistant): Mesenchymal subtype, total 4 xenografts; for frequency of xenograft models with survival difference NS (statistically Not Significant): Cox regression; for frequency of xenograft models with significantly longer survival than control (treatment-sensitive) / frequency of xenograft models with significantly shorter survival than control (treatment-resistant): Cox regression p-value threshold 0.05; for subtype-specific drug response (sensitivity or resistance): Mesenchymal-mapped xenograft models, survival analysis
Experimental: as §1, §2

SMILES | frequency of xenograft models with survival difference NS (statistically Not Significant) [1] | frequency of xenograft models with significantly longer survival than control (treatment-sensitive) [1] | frequency of xenograft models with significantly shorter survival than control (treatment-resistant) [1] | subtype-specific drug response (sensitivity or resistance) ([1]; Classical-mapped xenograft models, survival analysis) | frequency of xenograft models with survival difference NS (statistically Not Significant) [2] | frequency of xenograft models with significantly longer survival than control (treatment-sensitive) [2] | frequency of xenograft models with significantly shorter survival than control (treatment-resistant) [2] | frequency of xenograft models with survival difference NS (statistically Not Significant) [3] | frequency of xenograft models with significantly longer survival than control (treatment-sensitive) [3] | frequency of xenograft models with significantly shorter survival than control (treatment-resistant) [3] | frequency of xenograft models with survival difference NS (statistically Not Significant) [4] | frequency of xenograft models with significantly longer survival than control (treatment-sensitive) [4] | frequency of xenograft models with significantly shorter survival than control (treatment-resistant) [4] | subtype-specific drug response (sensitivity or resistance) [4]
CNC(=O)c1cc(Oc2ccc(NC(=O)Nc3ccc(Cl)c(C(F)(F)F)c3)cc2)ccn1 [Sorafenib, sorafenib] | 1 | 0 | 1 | resistance | 3 | 0 | 0 | 1 | 1 | 0 | 1 | 1 | 2 | resistance
Cn1c(=O)n(-c2ccc(C(C)(C)C#N)cc2)c2c3cc(-c4cnc5ccccc5c4)ccc3ncc21 [BEZ235] | 2 | 0 | 0 |  | 3 | 0 | 0 | 1 | 1 | 0 | 3 | 0 | 1 | resistance
Cn1nnc2c(C(N)=O)ncn2c1=O [TMZ, temozolomide] | 1 | 1 | 0 |  | 2 | 1 | 0 | 1 | 1 | 0 | 2 | 2 | 0 | 
